The results in this text go back to patent US20190345138A1, “HETEROCYCLIC AMIDES AS KINASE INHIBITORS” (GlaxoSmithKline Intellectual Property Development Limited, priority 2016, published 2019).

Where “and” joins values, the source holds several entries; their conditions need not be identical. Equal values may be shown once.

One test deals with T1, RIP1 kinase (Homo sapiens, UniProt Q13546).
T1 sequence (Q13546 1-375 limits assumed): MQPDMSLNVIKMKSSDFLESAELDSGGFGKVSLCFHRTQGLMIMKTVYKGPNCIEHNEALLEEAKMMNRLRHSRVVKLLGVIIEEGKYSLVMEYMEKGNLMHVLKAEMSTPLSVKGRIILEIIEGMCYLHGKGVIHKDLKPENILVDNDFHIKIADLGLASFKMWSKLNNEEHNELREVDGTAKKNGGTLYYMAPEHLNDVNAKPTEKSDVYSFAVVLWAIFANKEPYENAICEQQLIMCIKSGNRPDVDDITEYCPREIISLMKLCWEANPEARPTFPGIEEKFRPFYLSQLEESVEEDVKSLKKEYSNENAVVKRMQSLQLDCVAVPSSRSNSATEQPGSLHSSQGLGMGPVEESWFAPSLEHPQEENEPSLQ
Description: fluorescent polarization based binding assay. To be noted: mean of a minimum of 2 experiments. From the text:
A fluorescent polarization based binding assay was used to assess the activity of the compounds of this invention, the details of which are disclosed in International Patent Appln. No. PCT/IB2014/059004, now, International Patent Appln. Pub.

In test [1] the test system is human monocytic leukemia U937 cells. Description: necroptosis assay in U937 cells. The following applies: Homo sapiens, U-937, U937 cells; viability by cellular ATP (Cell Titer-Glo); read-out: pIC50, inhibited necrosis in U937 cells (converted). Format: cell-based. The gist of the method:
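Necroptosis was induced in human U937 or mouse L929 cells, and viability was quantified as cellular ATP with Cell Titer-Glo. Data are means±standard deviation.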
In general terms: In ATP-based viability assays light output follows the ATP content of the culture.

`O=C1Cc2cnc(N3CCC(C(=O)N4N=CC[C@H]4c4ccccc4)CC3)nc2N1` [Example 24, (S)-2-(4-(5-phenyl-4,5-dihydro-1H-pyrazole-1-carbonyl)piperidin-1-yl)-5H-pyrrolo[2,3-d]pyrimidin-6(7H)-one]: the IC50 on RIP1 kinase was 1 to 31.6 nM; in test [1] it was 1 to 100 nM.
In the same order, the values of `COc1nc(N)cc(N2CCC(C(=O)N3N=CC[C@H]3c3ccccc3)CC2)n1` [Example 35, (S)-(1-(6-amino-2-methoxypyrimidin-4-yl)piperidin-4-yl)(5-phenyl-4,5-dihydro-1H-pyrazol-1-yl)methanone] are 1 to 31.6 nM and 1 to 100 nM.
`COc1cnc(N2CCC(C(=O)N3N=CC[C@H]3c3ccccc3)CC2)nc1` [Example 13, (S)-(1-(5-methoxypyrimidin-2-yl)piperidin-4-yl)(5-phenyl-4,5-dihydro-1H-pyrazol-1-yl)methanone]: the IC50 on RIP1 kinase is 1 to 31.6 nM and 1 to 10 nM; in test [1], 1 to 100 nM.
As to `O=C(C1CCN(c2nnc(-c3ccccc3)o2)CC1)N1N=CC[C@H]1c1ccccc1` [Example 57, (S)-(1-(5-phenyl-1,3,4-oxadiazol-2-yl)piperidin-4-yl)(5-phenyl-4,5-dihydro-1H-pyrazol-1-yl)methanone], the IC50 on RIP1 kinase is 1 to 31.6 nM; in test [1], 1 to 100 nM.
Taken in the same sequence, the figures for `Nc1nc(N2CCC(C(=O)N3N=CC[C@H]3c3cncc(F)c3)CC2)ncc1F` [Example 112, (S)-(1-(4-amino-5-fluoropyrimidin-2-yl)piperidin-4-yl)(5-(5-fluoropyridin-3-yl)-4,5-dihydro-1H-pyrazol-1-yl)methanone] were 1 to 31.6 nM and 1 to 100 nM.
Regarding `NC(=O)c1coc(N2CCC(C(=O)N3N=CC[C@H]3c3cc(F)cc(F)c3)CC2)n1` [Example 134, (S)-2-(4-(5-(3,5-difluorophenyl)-4,5-dihydro-1H-pyrazole-1-carbonyl)piperidin-1-yl)oxazole-4-carboxamide], the IC50 on RIP1 kinase was 1 to 31.6 nM; in test [1], 1 to 100 nM.
With `CCN(CC)C(=O)c1ccnc(N2CCC(C(=O)N3N=CC[C@H]3c3ccccc3)CC2)n1` [Example 142, (S)-N,N-diethyl-2-(4-(5-phenyl-4,5-dihydro-1H-pyrazole-1-carbonyl)piperidin-1-yl)pyrimidine-4-carboxamide], the IC50 on RIP1 kinase was 1 to 31.6 nM and 1 to 10 nM; in test [1] it was 1 to 100 nM.
As for `COc1nccc(N2CCC(C(=O)N3N=CC[C@H]3c3cc(F)cc(F)c3)CC2)n1` [Example 99, (S)-(5-(3,5-difluorophenyl)-4,5-dihydro-1H-pyrazol-1-yl)(1-(2-methoxypyrimidin-4-yl)piperidin-4-yl)methanone], the IC50 on RIP1 kinase was 1 to 31.6 nM and 1 to 10 nM; in test [1] it was 1 to 100 nM.
Turning to `CC(=O)N1CCC(NC(=O)c2ccnc(N3CCC(C(=O)N4N=CC[C@H]4c4ccccc4)CC3)n2)CC1` [Example 144, (S)-N-(1-acetylpiperidin-4-yl)-2-(4-(5-phenyl-4,5-dihydro-1H-pyrazole-1-carbonyl)piperidin-1-yl)pyrimidine-4-carboxamide], the IC50 on RIP1 kinase is 1 to 31.6 nM; in test [1], 1 to 100 nM.
As for `Nc1cc(N2CCC(C(=O)N3N=CC[C@H]3c3cc(F)cc(F)c3)CC2)ncn1` [Example 98, (S)-(1-(6-aminopyrimidin-4-yl)piperidin-4-yl)(5-(3,5-difluorophenyl)-4,5-dihydro-1H-pyrazol-1-yl)methanone], the IC50 was 1 to 31.6 nM and 1 to 10 nM on RIP1 kinase; 1 to 100 nM in test [1].
For `O=C(C1CCN(c2ccc3nccn3n2)CC1)N1N=CC[C@H]1c1cc(F)cc(F)c1` [Example 87, (S)-(5-(3,5-difluorophenyl)-4,5-dihydro-1H-pyrazol-1-yl)(1-(imidazo[1,2-b]pyridazin-6-yl)piperidin-4-yl)methanone], the IC50 is 1 to 31.6 nM and 1 to 10 nM at RIP1 kinase; 1 to 100 nM in test [1].
For the compound `COc1cnc(N2CCC(C(=O)N3N=CC[C@H]3c3cc(F)ccc3F)CC2)nc1` [Example 101, (S)-(5-(2,5-difluorophenyl)-4,5-dihydro-1H-pyrazol-1-yl)(1-(5-methoxypyrimidin-2-yl)piperidin-4-yl)methanone], the IC50 on RIP1 kinase was 1 to 31.6 nM and 1 to 10 nM; in test [1] it was 1 to 100 nM.
